Measured values taken from PMC5325082 (Molecular Pharmacology, 2017).

Tests used:
Assay in all cases: ACh-evoked currents, two-electrode voltage clamp in Xenopus laevis oocytes
Format in all cases: cell-based
[1] = target: rat α9α10CC/SS receptor (Rattus norvegicus, UniProt P43144+Q9JLB5, C218S/C219S)
Text: (§1) cDNAs encoding Gallus gallus (chick) or Rattus norvegicus (rat) α9 and α10 nAChR subunits were subcloned into a modified pGEMHE vector for expression studies in Xenopus laevis oocytes. Capped cRNAs were in vitro transcribed from linearized plasmid DNA templates using RiboMAX Large Scale RNA Production System (Promega, Madison, WI). Mutant subunits were produced using Quick Change XL II kit (Stratagene, La Jolla, CA). Amino acid sequences of rat and chicken α9, α10, and Torpedo α1 subunits were aligned using ClustalW (EMBL-EBI, Wellcome Genome Campus, Hinxton, Cambridgeshire). Residues were numbered according to the corresponding Torpedo α1 subunit mature protein ([Karlin, 2002]).
(§2) The maintenance of Xenopus laevis and the preparation and cRNA injection of stage V and VI oocytes have been described in detail elsewhere ([Verbitsky et al., 2000]). Typically, oocytes were injected with 50 nl of RNase-free water containing 0.01–1.0 ng of cRNA (at a 1:1 molar ratio when pairwise combined) and maintained in Barth’s solution at 18°C. Electrophysiological recordings were performed 2–6 days after cRNA injection under two-electrode voltage clamp with an Oocyte Clamp OC-725B or C amplifier (Warner Instruments Corp., Hamden, CT). Recordings were filtered at a corner frequency of 10 Hz using a 900BT Tunable Active Filter (Frequency Devices Inc., Ottawa, IL). Data acquisition was performed using a Patch Panel PP-50 LAB/1 interface (Warner Instruments Corp.) at a rate of 10 points per second. Both voltage and current electrodes were filled with 3 M KCl and had resistances of ∼1 MΩ. Data were analyzed using Clampfit from the pClamp 6.1 software (Molecular Devices, Sunnyvale, CA). During electrophysiological recordings, oocytes were continuously superfused (∼15 ml/min) with normal frog saline composed of: 115 mM NaCl, 2.5 mM KCl, 1.8 mM CaCl2, and 10 mM HEPES buffer, pH 7.2. […] Unless otherwise indicated, the membrane potential was clamped to −70 mV. To minimize activation of the endogenous Ca^2+ sensitive chloride current ([Elgoyhen et al., 2001]), all experiments were performed in oocytes incubated with the Ca^2+ chelator 1,2-bis(2-aminophenoxy)ethane-N,N,N′,N′-tetraacetic acid (acetoxymethyl ester) (100 µM) for 3 hours before electrophysiological recordings.
(§3) Concentration-response curves were normalized to the maximal agonist response in each oocyte. The mean and S.E.M. values of the responses are represented. Agonist concentration-response curves were iteratively fitted, using Prism 5 software (GraphPad Software Inc., La Jolla, CA), with the equation: I/Imax = A^nH/(A^nH + EC50^nH), where I is the peak inward current evoked by the agonist at concentration A; Imax is the current evoked by the concentration of the agonist eliciting a maximal response; EC50 is the concentration of the agonist inducing a half-maximal current response; and nH is the Hill coefficient. Data were analyzed using Clampfit from the pClamp 6.1 software.

[2] = target: rat α9CC/SSα10CC/SS receptor (Rattus norvegicus, UniProt P43144+Q9JLB5, C218S/C219S/C220S)
Text: as §1, §2, §3

[3] = target: rat α9W55Tα10 receptor (Rattus norvegicus, UniProt P43144+Q9JLB5, W82T)
Text: as §1, §2, §3

[4] = target: rat α9Y190Tα10 receptor (Rattus norvegicus, UniProt P43144+Q9JLB5, Y217T)
Text: as §1, §2, §3

[5] = target: rat α9CC/SSα10 receptor (Rattus norvegicus, UniProt P43144+Q9JLB5, C219S/C220S)
Text: as §1, §2, §3

[6] = target: rat α9α10Y190T receptor (Rattus norvegicus, UniProt P43144+Q9JLB5, Y216T)
Text: as §1, §2, §3

[7] = target: T1, rat double-mutant α9Y190Tα10Y190T receptors (Rattus norvegicus, UniProt P43144+Q9JLB5, Y216T/Y217T); details: 1 or 30 mM ACh, n = 8
T1 construct: expressed in transfected cells; host or cells: Xenopus laevis oocytes (cRNA injection)
Text: as §1
The maintenance of Xenopus laevis and the preparation and cRNA injection of stage V and VI oocytes have been described in detail elsewhere ([Verbitsky et al., 2000]). Typically, oocytes were injected with 50 nl of RNase-free water containing 0.01–1.0 ng of cRNA (at a 1:1 molar ratio when pairwise combined) and maintained in Barth’s solution at 18°C. Electrophysiological recordings were performed 2–6 days after cRNA injection under two-electrode voltage clamp with an Oocyte Clamp OC-725B or C amplifier (Warner Instruments Corp., Hamden, CT). Recordings were filtered at a corner frequency of 10 Hz using a 900BT Tunable Active Filter (Frequency Devices Inc., Ottawa, IL). Data acquisition was performed using a Patch Panel PP-50 LAB/1 interface (Warner Instruments Corp.) at a rate of 10 points per second. Both voltage and current electrodes were filled with 3 M KCl and had resistances of ∼1 MΩ. Data were analyzed using Clampfit from the pClamp 6.1 software (Molecular Devices, Sunnyvale, CA). During electrophysiological recordings, oocytes were continuously superfused (∼15 ml/min) with normal frog saline composed of: 115 mM NaCl, 2.5 mM KCl, 1.8 mM CaCl2, and 10 mM HEPES buffer, pH 7.2. ACh was added to the perfusion solution for application. Unless otherwise indicated, the membrane potential was clamped to −70 mV. To minimize activation of the endogenous Ca^2+ sensitive chloride current ([Elgoyhen et al., 2001]), all experiments were performed in oocytes incubated with the Ca^2+ chelator 1,2-bis(2-aminophenoxy)ethane-N,N,N′,N′-tetraacetic acid (acetoxymethyl ester) (100 µM) for 3 hours before electrophysiological recordings.
as §3

[8] = target: T2, rat α9α10W55T receptor (Rattus norvegicus, UniProt P43144+Q9JLB5, W81T)
T2 construct: expressed in transfected cells; host or cells: Xenopus laevis oocytes (cRNA injection)
Text: as §1, §2
(§4) Concentration-response curves were normalized to the maximal agonist response in each oocyte. The mean and S.E.M. values of the responses are represented. […] Data were analyzed using Clampfit from the pClamp 6.1 software. […]

[9] = target: rat α9α10 W55T/R117M receptor (Rattus norvegicus, UniProt P43144+Q9JLB5, R143M/W81T)
Text: as §1, §2, §4

[10] = target: rat α9α10R117M receptor (Rattus norvegicus, UniProt P43144+Q9JLB5, R143M)
Text: as §1, §2, §4

Sequence of rat α9α10 W55T/R117M receptor (P43144 26-479): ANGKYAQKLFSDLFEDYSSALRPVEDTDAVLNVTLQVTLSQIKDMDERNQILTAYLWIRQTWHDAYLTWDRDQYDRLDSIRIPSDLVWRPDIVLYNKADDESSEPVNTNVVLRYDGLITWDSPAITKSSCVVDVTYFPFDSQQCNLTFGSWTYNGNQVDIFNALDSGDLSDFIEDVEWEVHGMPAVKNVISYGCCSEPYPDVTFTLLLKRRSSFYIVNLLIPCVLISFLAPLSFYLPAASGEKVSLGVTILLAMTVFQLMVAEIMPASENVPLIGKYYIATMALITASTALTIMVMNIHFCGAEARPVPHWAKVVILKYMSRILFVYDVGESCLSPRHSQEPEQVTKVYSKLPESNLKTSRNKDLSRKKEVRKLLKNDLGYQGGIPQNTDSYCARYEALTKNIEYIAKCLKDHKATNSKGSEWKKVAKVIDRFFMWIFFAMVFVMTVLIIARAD
Sequence of rat α9α10 W55T/R117M receptor (Q9JLB5 25-447 W81T/R143M): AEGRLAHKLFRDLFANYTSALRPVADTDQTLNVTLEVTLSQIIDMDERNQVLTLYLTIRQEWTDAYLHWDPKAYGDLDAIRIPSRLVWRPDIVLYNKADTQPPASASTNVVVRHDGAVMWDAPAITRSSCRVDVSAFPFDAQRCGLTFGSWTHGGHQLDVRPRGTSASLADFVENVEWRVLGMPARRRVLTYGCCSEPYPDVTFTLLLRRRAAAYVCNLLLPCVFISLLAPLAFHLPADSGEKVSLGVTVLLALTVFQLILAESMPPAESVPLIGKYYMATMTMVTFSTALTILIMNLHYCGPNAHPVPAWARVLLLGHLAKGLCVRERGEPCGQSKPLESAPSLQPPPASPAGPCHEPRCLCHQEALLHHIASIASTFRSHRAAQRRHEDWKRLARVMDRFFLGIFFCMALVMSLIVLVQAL
T1 sequence (P43144 26-479 Y217T): as the sequence (P43144 26-479) above, with Y192T counted along it
T1 sequence (Q9JLB5 25-447 Y216T): as the sequence (Q9JLB5 25-447 W81T/R143M) above, with T57W, M119R, Y192T counted along it
Sequence of rat α9Y190Tα10 receptor (P43144 26-479 Y217T): as the sequence (P43144 26-479) above, with Y192T counted along it
Sequence of rat α9Y190Tα10 receptor (Q9JLB5 25-447): as the sequence (Q9JLB5 25-447 W81T/R143M) above, with T57W, M119R counted along it
Sequence of rat α9W55Tα10 receptor (P43144 26-479 W82T): as the sequence (P43144 26-479) above, with W57T counted along it
Sequence of rat α9W55Tα10 receptor (Q9JLB5 25-447): as the sequence (Q9JLB5 25-447 W81T/R143M) above, with T57W, M119R counted along it
Sequence of rat α9CC/SSα10 receptor (P43144 26-479 C219S/C220S): as the sequence (P43144 26-479) above, with C194S, C195S counted along it
Sequence of rat α9CC/SSα10 receptor (Q9JLB5 25-447, stated change not applied): as the sequence (Q9JLB5 25-447 W81T/R143M) above, with T57W, M119R counted along it
Sequence of rat α9CC/SSα10CC/SS receptor (P43144 26-479 C219S/C220S): as the sequence (P43144 26-479) above, with C194S, C195S counted along it
Sequence of rat α9CC/SSα10CC/SS receptor (Q9JLB5 25-447 C218S/C219S): as the sequence (Q9JLB5 25-447 W81T/R143M) above, with T57W, M119R, C194S, C195S counted along it
Sequence of rat α9α10Y190T receptor (P43144 26-479): as the sequence (P43144 26-479) above
Sequence of rat α9α10Y190T receptor (Q9JLB5 25-447 Y216T): as the sequence (Q9JLB5 25-447 W81T/R143M) above, with T57W, M119R, Y192T counted along it
Sequence of rat α9α10R117M receptor (P43144 26-479): as the sequence (P43144 26-479) above
Sequence of rat α9α10R117M receptor (Q9JLB5 25-447 R143M): as the sequence (Q9JLB5 25-447 W81T/R143M) above, with T57W counted along it
T2 sequence (P43144 26-479): as the sequence (P43144 26-479) above
T2 sequence (Q9JLB5 25-447 W81T): as the sequence (Q9JLB5 25-447 W81T/R143M) above, with M119R counted along it
Sequence of rat α9α10CC/SS receptor (P43144 26-479, stated change not applied): as the sequence (P43144 26-479) above
Sequence of rat α9α10CC/SS receptor (Q9JLB5 25-447 C218S/C219S): as the sequence (Q9JLB5 25-447 W81T/R143M) above, with T57W, M119R, C194S, C195S counted along it

CC(=O)OCC[N+](C)(C)C [ACh, acetylcholine]
Imax (maximal evoked current) [1]: 571 ± 113 nA
Imax (maximal evoked current) [2]: 360 ± 119 nA
Imax (maximal evoked current) [3]: 42 ± 4 nA
Imax (maximal evoked current) [4]: 112 ± 6 nA
Imax (maximal evoked current) [5]: 402 ± 103 nA
Imax (maximal evoked current) [6]: 336 ± 91 nA
Response to ACh [7]: failed to respond
Imax (maximal evoked current) [8]: 177 ± 81 nA
Imax (maximal evoked current) ([9]; rat α9α10 W55T/R117M, oocytes): 245 ± 83 nA
Free energy coupling, double-mutant cycle ([9]; α10W55 and α10R117): -1.47 kcal/mol
Imax (maximal evoked current) [10]: 107 ± 38 nA
